Holding throughout (assay type): biochemical
The target in one test is T1, CYP2C9 (Homo sapiens, UniProt P11712).
T1 construct: purchased Becton Dickinson GmbH (Heidelberg)
The experiment in a line: Inhibition of hepatic CYP enzymes: CYP2C9. The note with it: read-out: CYP2C9 IC50 (mean ± SD). The source says: (§1) Drug interactions (inhibition of hepatic CYP enzymes): The inhibition of six human hepatic cytochrome P450 enzymes by selected compounds was examined by means of the kit supplied by Becton Dickinson GmbH (Heidelberg).

A further test concerns the target T2, 17β-HSD1 (Homo sapiens, UniProt P14061).
T2 construct: In both cases, human placenta served as the enzyme source; from tissue; host or cells: human placenta
T2 sequence (P14061 1-328): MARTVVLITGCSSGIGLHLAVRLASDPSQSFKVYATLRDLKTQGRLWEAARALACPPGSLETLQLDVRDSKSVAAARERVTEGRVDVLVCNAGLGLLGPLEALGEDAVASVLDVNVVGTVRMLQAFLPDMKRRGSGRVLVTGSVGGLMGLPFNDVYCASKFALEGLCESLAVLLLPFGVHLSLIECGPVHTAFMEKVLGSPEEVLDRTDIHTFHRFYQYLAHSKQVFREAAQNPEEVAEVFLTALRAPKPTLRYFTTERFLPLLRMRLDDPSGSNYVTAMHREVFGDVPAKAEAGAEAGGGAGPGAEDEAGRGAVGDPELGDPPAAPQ
In words: Inhibition of 17β-HSD1 (estrone to estradiol, radio-HPLC). The following applies: for IC50: human placenta enzyme, 500 nM estrone, NADH 500 μM; for Selectivity IC50 (17β-HSD2)/IC50 (17β-HSD1): ratio of IC50 values.

The next test has as its target T3, CYP3A4 (Homo sapiens, UniProt P08684).
T3 construct: purchased Becton Dickinson GmbH (Heidelberg)
The experiment in a line: Inhibition of hepatic CYP enzymes: CYP3A4. The following applies: read-out: CYP3A4 IC50 (mean ± SD).
Source text: as §1

Another test deals with T4, CYP2C19 (Homo sapiens, UniProt P33261).
T4 construct: purchased Becton Dickinson GmbH (Heidelberg)
T4 sequence (P33261 whole entry): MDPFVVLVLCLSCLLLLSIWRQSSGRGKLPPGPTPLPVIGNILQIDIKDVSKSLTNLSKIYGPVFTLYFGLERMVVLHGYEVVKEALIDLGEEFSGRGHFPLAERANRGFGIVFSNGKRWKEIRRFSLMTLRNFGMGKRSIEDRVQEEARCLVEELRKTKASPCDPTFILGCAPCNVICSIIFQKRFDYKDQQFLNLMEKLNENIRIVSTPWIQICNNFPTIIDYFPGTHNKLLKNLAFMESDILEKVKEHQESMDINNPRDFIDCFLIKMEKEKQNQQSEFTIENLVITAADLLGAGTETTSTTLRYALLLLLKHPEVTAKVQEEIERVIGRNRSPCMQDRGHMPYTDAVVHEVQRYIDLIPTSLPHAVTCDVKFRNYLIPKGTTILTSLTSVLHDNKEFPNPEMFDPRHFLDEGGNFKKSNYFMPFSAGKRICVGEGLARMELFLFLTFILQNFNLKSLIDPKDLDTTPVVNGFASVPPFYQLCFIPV
In words: Inhibition of hepatic CYP enzymes: CYP2C19. The following applies: read-out: CYP2C19 IC50 (mean ± SD).
Source text: as §1

The target in a further test is T5, CYP1A2 (Homo sapiens, UniProt P05177).
T5 construct: purchased Becton Dickinson GmbH (Heidelberg)
T5 sequence (P05177 1-516): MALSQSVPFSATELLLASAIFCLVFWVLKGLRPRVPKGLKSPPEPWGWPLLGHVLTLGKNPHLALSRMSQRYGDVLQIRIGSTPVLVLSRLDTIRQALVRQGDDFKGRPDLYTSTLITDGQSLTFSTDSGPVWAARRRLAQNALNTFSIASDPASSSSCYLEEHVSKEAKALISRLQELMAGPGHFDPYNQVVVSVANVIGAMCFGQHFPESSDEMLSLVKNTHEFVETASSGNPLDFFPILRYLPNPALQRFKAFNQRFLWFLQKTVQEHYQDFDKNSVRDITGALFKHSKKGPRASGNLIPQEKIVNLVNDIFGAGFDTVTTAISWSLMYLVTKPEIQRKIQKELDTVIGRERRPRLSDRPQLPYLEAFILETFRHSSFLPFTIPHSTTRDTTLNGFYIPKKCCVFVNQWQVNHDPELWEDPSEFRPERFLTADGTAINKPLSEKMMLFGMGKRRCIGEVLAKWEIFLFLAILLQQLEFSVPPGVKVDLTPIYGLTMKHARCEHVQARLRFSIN
The experiment in a line: Inhibition of hepatic CYP enzymes: CYP1A2. The following applies: read-out: CYP1A2 IC50 (mean ± SD).
Source text: as §1

In a further test the target is T6, 17β-HSD2 (Homo sapiens, UniProt P37059).
T6 construct: from tissue; host or cells: human placenta, microsome fraction
T6 sequence (P37059 1-387): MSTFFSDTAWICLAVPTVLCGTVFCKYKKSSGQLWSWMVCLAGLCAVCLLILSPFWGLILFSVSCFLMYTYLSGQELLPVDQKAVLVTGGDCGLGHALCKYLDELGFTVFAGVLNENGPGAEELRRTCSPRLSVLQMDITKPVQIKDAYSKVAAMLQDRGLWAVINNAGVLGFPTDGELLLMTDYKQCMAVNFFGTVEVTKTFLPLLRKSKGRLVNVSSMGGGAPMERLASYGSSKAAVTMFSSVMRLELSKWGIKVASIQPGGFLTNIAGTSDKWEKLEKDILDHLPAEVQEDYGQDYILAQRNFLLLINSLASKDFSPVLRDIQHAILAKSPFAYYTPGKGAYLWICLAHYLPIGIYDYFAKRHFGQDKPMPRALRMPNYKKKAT
The experiment in a line: Inhibition of 17β-HSD2 (estradiol to estrone, radio-HPLC). The following applies: human placenta microsome fraction, 500 nM estradiol, NAD+ 1500 μM.

A further test concerns the target T7, CYP2D6 (Homo sapiens, UniProt P10635).
T7 construct: purchased Becton Dickinson GmbH (Heidelberg)
The experiment in a line: Inhibition of hepatic CYP enzymes: CYP2D6. The note with it: read-out: CYP2D6 IC50 (mean ± SD).
Source text: as §1

T1 sequence (P11712 whole entry): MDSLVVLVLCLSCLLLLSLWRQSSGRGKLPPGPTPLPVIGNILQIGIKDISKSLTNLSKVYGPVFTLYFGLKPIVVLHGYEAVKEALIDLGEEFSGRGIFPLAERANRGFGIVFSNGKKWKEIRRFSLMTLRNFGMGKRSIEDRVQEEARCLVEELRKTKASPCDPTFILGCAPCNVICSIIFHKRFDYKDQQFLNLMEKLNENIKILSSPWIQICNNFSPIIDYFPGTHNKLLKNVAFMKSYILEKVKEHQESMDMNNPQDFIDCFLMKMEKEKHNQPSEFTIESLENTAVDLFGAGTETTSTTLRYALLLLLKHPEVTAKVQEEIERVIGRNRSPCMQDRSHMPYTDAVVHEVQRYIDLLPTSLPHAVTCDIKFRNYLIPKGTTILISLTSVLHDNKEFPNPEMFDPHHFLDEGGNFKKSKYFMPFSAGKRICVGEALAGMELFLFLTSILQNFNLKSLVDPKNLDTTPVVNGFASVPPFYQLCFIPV
T3 sequence (P08684 whole entry): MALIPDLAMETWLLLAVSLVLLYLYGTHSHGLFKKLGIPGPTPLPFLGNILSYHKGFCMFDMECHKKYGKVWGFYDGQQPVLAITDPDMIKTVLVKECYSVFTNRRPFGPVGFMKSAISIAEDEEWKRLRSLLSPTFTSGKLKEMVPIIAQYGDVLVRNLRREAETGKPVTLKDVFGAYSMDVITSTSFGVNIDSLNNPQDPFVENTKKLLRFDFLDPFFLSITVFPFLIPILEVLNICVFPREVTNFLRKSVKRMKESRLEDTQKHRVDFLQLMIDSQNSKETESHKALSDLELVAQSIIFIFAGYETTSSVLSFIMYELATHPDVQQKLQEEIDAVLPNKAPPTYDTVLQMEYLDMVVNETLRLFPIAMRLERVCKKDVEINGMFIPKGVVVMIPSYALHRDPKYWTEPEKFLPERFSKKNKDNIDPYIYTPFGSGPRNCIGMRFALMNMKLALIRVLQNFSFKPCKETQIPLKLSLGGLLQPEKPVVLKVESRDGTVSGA
T7 sequence (P10635 whole entry): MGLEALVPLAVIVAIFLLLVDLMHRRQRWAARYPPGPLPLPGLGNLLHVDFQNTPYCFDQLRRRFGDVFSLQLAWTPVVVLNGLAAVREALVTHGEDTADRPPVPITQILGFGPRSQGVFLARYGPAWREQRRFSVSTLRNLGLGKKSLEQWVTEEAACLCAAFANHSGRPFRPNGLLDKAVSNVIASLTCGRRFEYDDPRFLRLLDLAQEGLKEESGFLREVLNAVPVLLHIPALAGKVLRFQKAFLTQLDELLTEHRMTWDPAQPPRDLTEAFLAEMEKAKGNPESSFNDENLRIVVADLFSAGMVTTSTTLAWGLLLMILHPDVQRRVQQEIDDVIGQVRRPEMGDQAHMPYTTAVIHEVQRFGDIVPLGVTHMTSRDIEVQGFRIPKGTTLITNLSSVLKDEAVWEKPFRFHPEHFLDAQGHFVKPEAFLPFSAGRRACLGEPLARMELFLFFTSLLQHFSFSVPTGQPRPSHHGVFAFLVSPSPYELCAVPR

`Oc1ccc(-c2ccsc2-c2cccc(O)c2)cc1` [Compound 28, 3-[3-(4-Hydroxyphenyl)-2-thienyl]phenol]: the IC50 on CYP2C9 came out at 2.98 ± 0.02 µM; at 17β-HSD1, 3.4 µM; on CYP3A4 it was 7.36 ± 0.49 µM; at CYP2C19, 3.37 ± 0.12 µM; at CYP1A2 it was 5.35 ± 0.24 µM; on 17β-HSD2 it was 1.8 µM. In addition, the IC50 at CYP2D6 was found to be 6.99 ± 0.02 µM. Further, at 17β-HSD1, the “Selectivity IC50 (17β-HSD2)/IC50 (17β-HSD1)” value turned out to be 0.5.

For `Oc1cccc(-c2ccc(-c3cccc(O)c3)cc2)c1` [Compound 42, [1,1′,4′,1″]Terphenyl-3,3′-diol], the IC50 at CYP2C9 stood at 1.94 ± 0.1 µM; against 17β-HSD1, 0.11 µM; at CYP3A4, 2.13 ± 0.13 µM; at CYP2C19 it was 4.2 ± 0.29 µM; at CYP1A2, 17.2 ± 1.16 µM; against 17β-HSD2, 2.3 µM. For the same compound, the IC50 at CYP2D6 stood at 22 ± 0.29 µM. In addition, at 17β-HSD1, the “Selectivity IC50 (17β-HSD2)/IC50 (17β-HSD1)” value worked out at 21.

By IC50 is commonly meant the concentration that gives 50% inhibition.
